Patent US11957671B2, “Benzodioxane modulators of leukotriene A4 hydrolase (LTA4H) for prevention and treatment of aging-associated diseases” (Alkahest, Inc., priority 2021, dated 2024)

Experiments:
aged C57BL6 mice = test: Open Field; type: in vivo, mouse
Method: The open field test was used to evaluate general locomotor activity and exploratory behavior in a novel environment. It consisted of a square arena (16 in ×16 in). Mice were brought to the experimental room for at least 30 min of acclimation to the experimental room conditions (dim lighting) prior to testing. Mice were placed in the center of the arena, recorded, and tracked within a predefined peripheral and center space using the photobeam activity system automated software (ANY-maze) for 15 min. Total distance traveled, average velocity, and time spent in the peripheral and center zones were analyzed.
(§1) Three independent cohorts of aged wild type (WT; C57BL/6) mice between twenty to twenty-two months of age (20-22 mo) were homogenized into two (2) groups by body weight, total distance travelled in the open field test, and average velocity in the open field test. Group 1 was administered vehicle control PO daily. Group 2 was administered 10 mg/kg of the LTA4H inhibitor Compound 1 PO daily. Both groups were dosed for either 10 days or 4 weeks daily. Behavioral assays were run during the last week of dosing and animals were sacrificed at the end of the study for histological and molecular assays.

[1] = system: aged wild type (WT; C57BL/6) mice; test: Radial Arm Water Maze (RAWM); type: in vivo, mouse; conditions: 10 mg/kg PO daily, after 29 days of treatment
Method: The water maze (see, e.g. Alamed J, et al., Two-day radial-arm water maze learning and memory tasks; robust resolution of amyloid-related memory deficits in transgenic mice, Nat. Protoc., 1(4):1671-79 (2006)), was filled with water at least 24 hours prior to the test to equilibrate to 25° C. The water was dyed with white latex paint to make the animals visible for tracking and to allow for the use of a hidden platform. Eight distinct visual cues were placed at the end of each of eight arms of the RAWM inserts. On day 1 animals were subjected to 5 trials each with a visible platform and a 30-minute inter-trial interval. Animals had 60 seconds to reach the platform. […] The goal arm remained constant, and a different start arm was randomly assigned for each of the 5 trials so that mouse started in every arm once except for the two arms directly across from the platform. The goal arm was switched after every two mice and balanced between all treatment groups. After each trial the mice were placed in an empty cage with blue pads and allowed to dry off under a heat lamp before being placed back into their home cage. Testing day was 48 hours after training, when animals were subjected to the same test of 5 trials each and a 30-minute inter-trial interval, but with a hidden platform. Animals were scored for the number of errors (entry into a non-goal arm) and for latency to reach the platform. All trials were recorded using ANY-maze software.
as §1

O=C(O)C1CCN(Cc2ccc([C@H]3COc4ccccc4O3)cc2)CC1 [Example 1, 1-{4-[(2S)-2,3-dihydro-1,4-benzodioxin-2-yl]benzyl}piperidine-4-carboxylic acid]
time spent in periphery (P) or center (C) (aged C57BL6 mice; 4 weeks of dosing): no difference between time spent in the periphery (P) or center (C)
total distance traveled in open field (aged C57BL6 mice; 4 weeks of dosing): no change in total distance traveled
velocity in open field (aged C57BL6 mice; 4 weeks of dosing): no change in velocity
time spent in periphery (P) or center (C) (aged C57BL6 mice; 10 days of dosing): no difference between time spent in the periphery (P) or center (C)
total distance traveled in open field (aged C57BL6 mice; 10 days of dosing): no change in total distance traveled
velocity in open field (aged C57BL6 mice; 10 days of dosing): no change in velocity
average number of errors during the last trial [1]: significant decreased in number of errors
latency to find the hidden platform, last trial [1]: trend towards a reduction in time to find the platform
number of errors during the training and testing phases [1]: small, but significant improvement in number of errors
